From patent US9057076B2, “Compounds purified from blue roses” (SUNTORY HOLDINGS LIMITED, priority 2009, dated 2015)

What was measured:
[1] = Visible to ultraviolet absorption spectrum by HPLC with photodiode array detector; format: physicochemical; conditions: for λmax (absorption maximum): in 30% acetonitrile and 0.5% TFA, spectra 650 nm to 250 nm; for color compared with the compound of formula (II) of Patent Document 3: judged from the longer wavelength of the absorption maximum
Protocol: The blue pigment (1), the red pigment (2) and the blue pigment (3) were analyzed by HPLC, and their absorption spectra at 650 nm to 250 nm in 30% acetonitrile and 0.5% TFA were measured with a photodiode array detector (see FIGS. 3, 5 and 7).
HPLC was carried out by using a Shodex Asahipak ODP50 column (Showa Denko, 4.6 mm in diameter×25 cm) for the column and isocratic elution of a mobile phase consisting of 30% acetonitrile and 0.5% TFA at a flow rate of 0.6 ml/min. Detection was carried out by measuring the absorption spectra at 650 nm to 250 nm with a photodiode array detector (SPDM10Avp, Shimadzu) and monitoring the chromatogram at A560 nm.

[2] = Visual observation of color tone of isolated pigments; format: physicochemical
Description: The freeze-dried product, the blue pigment (1), the red pigment (2) and the blue pigment (3) obtained in the manner described above were visually observed for color tone.
The blue pigment (1), the red pigment (2) and the blue pigment (3) were visually observed for color tone.

[3] = freeze-dried product from Lavande variety transfected with plasmid pSPB919 (Example 1)
[4] = pigments from variety WKS82 transfected with plasmid pSPB130 (Example 3)

SMILES	λmax (absorption maximum) [1] [nm]	color compared with the compound of formula (II) of Patent Document 3 [1]	color tone, visually observed [2, 3]	color tone, visually observed [2, 4]
O=C(OC1C(O)OC2COC(=O)c3cc(Oc4c(-c5cc(O)c(O)c(O)c5)[o+]c5cc(O)cc6c5c4-c4c(C(=O)O)cc(O)c(O)c4O6)c(O)c(O)c3-c3c(cc(O)c(O)c3O)C(=O)O[C@H]2C1OC(=O)c1cc(O)c(O)c(O)c1)c1cc(O)c(O)c(O)c1 (some centres unmarked) [blue pigment (1)]	593	deeper blue color	deep blue	deep blue
O=C(OC1C(OC(=O)c2cc(O)c(O)c(O)c2)[C@@H]2OC(=O)c3cc(O)c(O)c(O)c3-c3c(cc(Oc4c(-c5cc(O)c(O)c(O)c5)[o+]c5cc(O)cc6c5c4-c4ccc(O)c(O)c4O6)c(O)c3O)C(=O)OCC2O[C@H]1OC(=O)c1cc(O)c(O)c(O)c1)c1cc(O)c(O)c(O)c1 (some centres unmarked) [blue pigment (3)]	594	deeper blue color	deep blue	deep blue
O=c1oc2c(-c3cc(O)c(O)c(O)c3)[o+]c3cc(O)cc4c3c2c2c(c(O)c(O)cc12)O4 [red pigment (2)]	535	–	deep red	deep red
